We go through 15 molecules from patent US5795907A, “Gastin and CCK receptor ligands” (James Black Foundation Limited, priority 1994, dated 1998).

The target in one assay is T1, CCKB receptor (Mus musculus, UniProt P56481).
T1 construct: The cortex was dissected, weighed and homogenised in 40ml ice-cold buffer; tissue Charles River (supplier of the CD1 mice); host or cells: cerebral cortex membranes of male CD1 mice
T1 sequence (P56481 1-453): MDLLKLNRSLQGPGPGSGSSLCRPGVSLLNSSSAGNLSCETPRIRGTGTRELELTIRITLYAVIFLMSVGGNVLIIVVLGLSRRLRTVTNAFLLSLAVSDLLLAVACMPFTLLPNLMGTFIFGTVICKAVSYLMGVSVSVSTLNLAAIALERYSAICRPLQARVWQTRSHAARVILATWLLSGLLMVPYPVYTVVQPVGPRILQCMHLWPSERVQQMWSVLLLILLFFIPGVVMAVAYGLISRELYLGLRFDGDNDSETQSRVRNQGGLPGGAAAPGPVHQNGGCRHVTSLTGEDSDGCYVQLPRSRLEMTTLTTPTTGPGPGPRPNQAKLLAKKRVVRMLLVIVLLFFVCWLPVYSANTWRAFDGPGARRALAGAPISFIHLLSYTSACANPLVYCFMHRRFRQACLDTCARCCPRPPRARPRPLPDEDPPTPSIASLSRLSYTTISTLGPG
Put plainly: CCKB receptor radioligand binding assay in mouse cortical membranes ([125I]-CCK8S). The settings on record: [125I]-CCK8S 200 pM, 150 min at 21±3°; for Ki: read-out: CCKB pKi (converted). In outline:
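Cortical membranes from male CD1 mice in HEPES buffer (pH 7.2; NaCl, KCl, MgCl2, EDTA, bacitracin) were incubated with competing compound and [125I]-CCK8S (added as a 200 pM solution) for 150 min at 21±3°. Non-specific binding was defined with L-365,260. Bound tracer was separated by GF/B filtration and counted by gamma counting.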

A further assay concerns the target T2, gastrin (Rattus norvegicus, UniProt P30553).
T2 construct: The stomach was lowered into a jacketed organ bath containing 40 ml of buffered solution; from tissue; host or cells: isolated perfused whole stomach of immature rats (ca. 21 days old)
T2 sequence (P30553 1-452): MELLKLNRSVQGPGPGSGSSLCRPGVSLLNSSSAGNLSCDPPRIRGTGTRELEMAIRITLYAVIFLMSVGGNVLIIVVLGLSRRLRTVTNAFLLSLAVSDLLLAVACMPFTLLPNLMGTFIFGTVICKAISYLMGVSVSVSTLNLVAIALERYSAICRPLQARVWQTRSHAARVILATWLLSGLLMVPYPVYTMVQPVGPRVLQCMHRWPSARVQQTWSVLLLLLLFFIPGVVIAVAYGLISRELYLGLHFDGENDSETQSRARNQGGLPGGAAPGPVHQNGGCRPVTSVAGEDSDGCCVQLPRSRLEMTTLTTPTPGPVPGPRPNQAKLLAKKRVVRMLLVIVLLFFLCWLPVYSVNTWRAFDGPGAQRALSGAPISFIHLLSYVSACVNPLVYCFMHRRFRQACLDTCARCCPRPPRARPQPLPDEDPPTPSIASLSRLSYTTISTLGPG
Put plainly: gastrin antagonist activity in an immature rat stomach assay (pentagastrin-stimulated acid secretion). The following applies: cumulative pentagastrin dose-response curves after 60 min with drug; for Kb: read-out: Gastrin pKB (converted). An outline of the steps:
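Isolated lumen-perfused immature rat stomach (33-50 g, ca. 21 days) in 37° organ bath with 3×10^-8 M 5-methylfurmethide; acid secretion read by pH electrode in perfusate. Compound added to serosal bath after 120 min stabilisation; cumulative pentagastrin dose-response curves begun 60 min later and analysed by the Black et al. method.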

The next assay addresses T3, CCKA (Cavia porcellus, UniProt Q63931).
T3 construct: The pancreatata were homogenised in 40 ml ice-cold HEPES buffer using a polytron; from tissue; host or cells: pancreas membranes of male Dunkin Hartley guinea-pigs
T3 sequence (Q63931 1-430): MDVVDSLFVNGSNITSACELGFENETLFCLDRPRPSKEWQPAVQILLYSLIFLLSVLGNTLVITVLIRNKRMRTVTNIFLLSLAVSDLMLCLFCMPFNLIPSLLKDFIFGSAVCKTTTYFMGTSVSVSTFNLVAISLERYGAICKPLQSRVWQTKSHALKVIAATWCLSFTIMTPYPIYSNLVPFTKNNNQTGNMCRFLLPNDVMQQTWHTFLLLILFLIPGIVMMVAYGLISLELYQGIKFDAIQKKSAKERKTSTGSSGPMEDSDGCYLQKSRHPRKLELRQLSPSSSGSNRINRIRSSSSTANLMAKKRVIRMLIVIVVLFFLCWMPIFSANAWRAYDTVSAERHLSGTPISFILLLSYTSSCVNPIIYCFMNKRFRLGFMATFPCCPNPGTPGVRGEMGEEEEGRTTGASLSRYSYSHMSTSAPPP
Put plainly: CCKA radioligand binding assay in guinea-pig pancreas membranes ([125I]-CCK8(S)). The settings on record: PD134,308 present, 150 minutes at 21±3°; for Ki: read-out: CCKA pKi (converted). In outline: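 Male guinea-pig pancreas membranes (1 mg/ml wet tissue in HEPES pH 7.2, suspension containing 0.375 μM PD134,308) were incubated 150 min at 21±3° with [125I]-CCK8(S) ([…] added solution) and competitor. Non-specific binding used 100 nM L-364,718 (added solution). Bound radioligand was measured by GF/B filtration and gamma counting.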

Where only a bound is given, the exact number is not on record here.

Turning to `COC(=O)[C@H]1CCCN1C(=O)c1cc2ccccc2cc1C(=O)NCC12CC3CC(CC(C3)C1)C2` [Example 7, 2-(2R-methoxycarbonylpyrrolidino-carbonyl)-3-(1-adamantanemethylaminocarbonyl)-naphthalene], the Ki at CCKB receptor and on CCKA was 1580 nM each time. The Kb on gastrin was 398 nM.
Turning to `O=C(O)c1cc(NC(=O)[C@H](Cc2ccccc2)NC(=O)c2cc3cc[nH]c3cc2C(=O)NCC2CN3CCC2CC3)cc(C(=O)O)c1` (stereo partly drawn) [Example 108, 5-(1S-(3,5-dicarboxyphenylaminocarbonyl)-2-phenylethylaminocarbonyl)-6-(1-azabicyclo[2.2.2]oct-3-ylmethylaminocarbonyl)-indole], the Ki on CCKB receptor was 1260 nM; on CCKA, above 10000 nM. For the same molecule, on gastrin, the Kb was 794 nM.
Take `Nc1cccc2cc(C(=O)N[C@@H](Cc3ccccc3)C(=O)Nc3cc(C(=O)O)cc(C(=O)O)c3)c(C(=O)NCC34CC5CC(CC(C5)C3)C4)cc12` [Example 115, 2-(1S-(3,5-dicarboxyphenylaminocarbonyl)-2-phenylethylaminocarbonyl)-3-(1-adamantanemethylaminocarbonyl)-5-aminonaphthalene]: the “CCKB pKi” value on CCKB receptor was 7.6. In addition, at gastrin, the “Gastrin pKB” value came out at 8.2. For the same molecule, the “CCKA pKi” value on CCKA is reported as 5.6.
Consider `O=C(O)c1ccc(Cl)c(NC(=O)[C@H](Cc2ccccc2)NC(=O)c2cc3[nH]cnc3cc2C(=O)NCC23CC4CC(CC(C4)C2)C3)c1` [Example 127, 5-(1S-(^2-chloro-5-carboxyphenylaminocarbonyl)-2-phenylethylaminocarbonyl)-6-(1-adamantanemethylaminocarbonyl)-benzimidazole], for which the Ki was 25.1 nM on CCKB receptor and 1260 nM at CCKA. On gastrin, the Kb is 31.6 nM.
For `O=C(O)c1cccc(NC(=O)[C@H](Cc2ccccc2)NC(=O)c2cc3cc[nH]c3cc2C(=O)NCC23CC4CC(CC(C4)C2)C3)c1` [Example 90, 5-(1S-(3-carboxyphenylaminocarbonyl)-2-phenylethylaminocarbonyl)-6-(1-adamantanemethylaminocarbonyl)-indole], the “CCKB pKi” value at CCKB receptor is listed as 8.2. Further, the “Gastrin pKB” value on gastrin turned out to be 8.0. The “CCKA pKi” value on CCKA was 5.3.
With `O=C(NCC12CC3CC(CC(C3)C1)C2)c1cc2[nH]ccc2cc1C(=O)N[C@@H](Cc1ccccc1)C(=O)Nc1cc(-c2nn[nH]n2)cc(-c2nn[nH]n2)c1` [Example 104, 5-(1S-(3,5-ditetrazolylphenylaminocarbonyl)-2-phenylethylaminocarbonyl)-6-(1-adamantanemethylaminocarbonyl)-indole], the Ki is 1.26 nM at CCKB receptor and 316 nM at CCKA. For the same molecule, on gastrin, the Kb was 2.51 nM.
Taken in the same sequence, the figures for `COC(=O)[C@@H](C)NC(=O)c1cc2ccccc2cc1C(=O)NCC12CC3CC(CC(C3)C1)C2` [Example 8, 2-(1R-methoxycarbonylethylamino-carbonyl)-3-(1-adamantanemethylaminocarbonyl)-naphthalene] were 5010 nM, 1000 nM and 1260 nM.
For “5-(1R-(3,5-dicarboxyphenylaminocarbonyl)-2-phenylethylaminocarbonyl)-6-(1-adamantanemethylaminocarbonyl)-indole and regioisomer with substituents at positions 5 and 6 reversed [Example 29]”, the “CCKB pKi” value on CCKB receptor turned out to be 8.1. The “Gastrin pKB” value on gastrin came to 9.2. Besides, the “CCKA pKi” value at CCKA is listed as 5.4.
Turning to `O=C(O)c1cc(NC(=O)[C@H](Cc2ccccc2)NC(=O)c2cc3cc[nH]c3cc2C(=O)NCC2CCC(O)CC2)cc(C(=O)O)c1` (single isomer, unassigned) [Example 109, 5-(1S-(3,5-dicarboxyphenylaminocarbonyl)-2-phenylethylaminocarbonyl)-6-(4-hydroxycyclohexanemethylaminocarbonyl)-indole], the values for the Ki at CCKB receptor and on CCKA were 200 nM and above 10000 nM, respectively. At gastrin, the Kb is 126 nM.
Consider “5-(1S-(3-methoxycarbonyl-5-pivaloyloxymethyloxycarbonyl-phenylaminocarbonyl)-2-phenylethylaminocarbonyl)-6-(1-adamantanemethylaminocarbonyl)-indole and regioisomer with substituents at positions 5 and 6 reversed [Example 39]”, for which the “CCKB pKi” value on CCKB receptor amounted to 6.4. At gastrin, the “Gastrin pKB” value came out at 6.8. Further, the “CCKA pKi” value at CCKA was determined as 4.9.
On the same counts, the results for “5-(1S-(3,5-di-methylsulphonylaminophenylaminocarbonyl)-2-phenylethylaminocarbonyl)-6-(1-adamantanemethylaminocarbonyl)-indole [Example 92]” are 6.5, 6.8 and 4.9.
Taken in the same sequence, the figures for `CN(O)C(=O)c1cc(NC(=O)[C@H](Cc2ccccc2)NC(=O)c2cc3cc[nH]c3cc2C(=O)NCC23CC4CC(CC(C4)C2)C3)cc(C(=O)N(C)O)c1` [Example 103, 5-(1S-(3,5-dihydroxy-N-(methyl)aminocarbonylphenylaminocarbonyl)-2-phenylethylaminocarbonyl)-6-(1-adamantanemethylaminocarbonyl)-indole] were 7.0, 7.8 and 5.2.
`CN(C(=O)[C@H](Cc1ccccc1)NC(=O)c1cc2[nH]cnc2cc1C(=O)NCC12CC3CC(CC(C3)C1)C2)c1cc(C(=O)O)cc(C(=O)O)c1` [Example 73, 5-(1S-(3,5-dicarboxyphenyl-N-(methyl)amino-carbonyl)-2-phenylethylaminocarbonyl)-6-(1-adamantane-methylaminocarbonyl)-benzimidazole]: the “CCKB pKi” value at CCKB receptor is 6.3. In addition, the Kb at gastrin was 63.1 nM. The Ki at CCKA was 6310 nM.
In the case of `O=C(NCC12CC3CC(CC(C3)C1)C2)c1cc2nc[nH]c2cc1C(=O)N[C@@H](Cc1ccccc1)C(=O)NCc1ccc(F)cc1` [Example 67, 5-(1S-(4-fluorophenylmethylaminocarbonyl)-2-phenylethylaminocarbonyl)-6-(1-adamantanemethylaminocarbonyl)-benzimidazole], the Ki was 501 nM on CCKB receptor and 2000 nM at CCKA. For the same molecule, the Kb at gastrin is 158 nM.
With `CC(C)(C)C(=O)OCOC(=O)c1cc(NC(=O)[C@H](Cc2ccccc2)NC(=O)c2cc3cc[nH]c3cc2C(=O)NCC23CC4CC(CC(C4)C2)C3)cc(C(=O)OCOC(=O)C(C)(C)C)c1` [Example 33, 5-(1S-(3,5-dipivaloyloxymethyloxycarbonylphenylaminocarbonyl)-2-phenylethylaminocarbonyl)-6-(1-adamantanemethylaminocarbonyl)-indole], the Ki is 2510 nM at CCKB receptor and 6310 nM on CCKA. Besides, the Kb on gastrin was 20 nM.
